Data set [1] concerns the target T1, CB1R (Rattus norvegicus, UniProt P20272).
T1 construct: from tissue; host or cells: rat cerebellum (membranes)
As to the kind of experiment: CB1R radioligand binding assay versus [3H]-SR141716A in rat cerebellar membranes. To be noted: for CB1R affinity (in words): radioligand not given; for Ki: radioligand [3H]-SR141716, mean ± standard error, three independent experiments in triplicate, read-out: K i (nM) CB1R versus [^3H]-SR141617. The text has this:
(§1) Radioligand Binding Assays. […] Competitive radioligand binding assays have been used to evaluate the affinity of selected synthetized triazoles to CB1R in rat cerebellar membranes.

Data set [2] addresses T1, CB1R. As to the kind of experiment: CB1R radioligand binding assay versus [3H]-WIN552122 in rat cerebellar membranes.
Excerpt: as §1

The subject of another data set is obese animals. Also noted: method as in PMID 16750544, PMID 18426510, PMID 21951309. To be noted: cited from earlier work.

Consider ten compounds from article PMC4834188, “Benzyl-1,2,4-triazoles as CB1 Cannabinoid Receptor Ligands: Preparation and In Vitro Pharmacological Evaluation” (International Journal of Medicinal Chemistry, 2016).

Molecules are shown by their SMILES. “Also recorded” adds a separate entry of the source.

One may read the melting point as the temperature, or range, at which the solid turns liquid.

T1 sequence (P20272 whole entry): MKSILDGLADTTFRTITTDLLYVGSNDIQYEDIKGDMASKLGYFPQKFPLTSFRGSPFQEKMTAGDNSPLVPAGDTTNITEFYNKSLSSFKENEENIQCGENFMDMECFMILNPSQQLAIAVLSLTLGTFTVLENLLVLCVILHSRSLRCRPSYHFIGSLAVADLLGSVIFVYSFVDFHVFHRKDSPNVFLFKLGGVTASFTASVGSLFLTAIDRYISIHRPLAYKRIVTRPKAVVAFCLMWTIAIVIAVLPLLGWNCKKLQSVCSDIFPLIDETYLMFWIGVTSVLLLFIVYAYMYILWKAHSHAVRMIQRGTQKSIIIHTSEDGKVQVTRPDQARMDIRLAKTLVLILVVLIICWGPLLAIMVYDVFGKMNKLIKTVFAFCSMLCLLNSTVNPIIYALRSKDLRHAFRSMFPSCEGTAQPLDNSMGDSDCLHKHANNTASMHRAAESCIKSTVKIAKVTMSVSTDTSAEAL

Consider `CCCCCCCc1nc(-c2ccccc2)nn1Cc1ccccc1` [Compound 7a, 1-Benzyl-5-heptyl-3-phenyl-1H-1,2,4-triazole], for which the “CB1R affinity (in words)” value on CB1R [1] is “moderate CB1R affinity”.
On to `CCCCCCCc1nc(-c2ccccc2)nn1Cc1ccc(Cl)cc1` [Compound 8a, 1-(4-Chlorobenzyl)-5-heptyl-3-phenyl-1H-1,2,4-triazole], for which the “CB1R affinity (in words)” value at CB1R [1] was “moderate CB1R affinity”.
The compound `CCCCCCCc1nc(-c2ccccc2)n(Cc2ccc(Cl)cc2Cl)n1` [Compound 9b, 1-(2,4-Dichloro-benzyl)-3-heptyl-5-phenyl-1H-1,2,4-triazole] had a melting point of 70 to 73 °C.
For the compound `CCCCCCCc1nc(-c2ccc(Cl)cc2)nn1Cc1ccccc1` [Compound 10a, 1-Benzyl-3-(4-chlorophenyl)-5-heptyl-1H-1,2,4-triazole], the “CB1R affinity (in words)” value on CB1R [1] is “moderate CB1R affinity”.
Take `CCCCCCCc1nc(-c2ccc(Cl)cc2)nn1Cc1ccc(Cl)cc1` [Compound 11a, 1-(4-Chlorobenzyl)-3-(4-chlorophenyl)-5-heptyl-1H-1,2,4-triazole]: the “CB1R affinity (in words)” value at CB1R [1] is on record as “moderate CB1R affinity”.
Regarding `CCCCCCCc1nc(-c2ccc(Cl)cc2)nn1Cc1ccc(Cl)cc1Cl` [Compound 12a, 3-(4-Chlorophenyl)-1-(2,4-dichlorobenzyl)-5-heptyl-1H-1,2,4-triazole], at CB1R [1], the Ki came out at 13.9 nM and the “CB1R affinity (in words)” value is given as “CB1R affinity in the nanomolar range; also recorded: high affinity for CB1R”. Besides, at CB1R [2] (radioligand [3H]-WIN552122, mean ± standard error, three independent experiments in triplicate), the “K i (nM) CB1R versus [^3H]-WIN552122” value was determined as 323 nM.
Compound `CCCCCCCc1nc(-c2ccc(Cl)cc2)n(Cc2ccc(Cl)cc2Cl)n1` [Compound 12b, 5-(4-Chlorophenyl)-1-(2,4-dichlorobenzyl)-3-heptyl-1H-1,2,4-triazole] returned a melting point of 97 to 99 °C.
The same measure, in the same setting: then `CCCCCCCc1nc(-c2ccncc2)n(Cc2ccc(Cl)cc2Cl)n1` [Compound 15b, 4-[1-(2,4-Dichlorobenzyl)-3-heptyl-1H-1,2,4-triazol-5-yl]pyridine], with 104 to 105 °C; and `CCCCCCCc1nc(-c2cc[n+](C)cc2)nn1Cc1ccc(Cl)cc1Cl.[I-]` [Compound 18, 4-[1-(2,4-Dichlorobenzyl)-5-heptyl-1H-1,2,4-triazol-3-yl]-1-methylpyridinium Iodide], with 136 to 138 °C.
Regarding `CCCCCCc1nc(-c2ccc(Cl)cc2)n(-c2ccc(Cl)cc2Cl)n1` [LH21, 5-(4-chlorophenyl)-1-(2,4-dichlorophenyl)-3-hexyl-1H-1,2,4-triazole, reference compound], the Ki on CB1R [1] is 856 ± 296 nM; on CB1R [2] (read-out: K i (nM) CB1R versus [^3H]-WIN552122, radioligand [3H]-WIN552122, mean ± standard error, three independent experiments in triplicate), 748 ± 193 nM. In addition, the “antiobesity activity in in vivo assays” value with obese animals is “exhibited antiobesity activity”.
